Measured values taken from patent US7691844B2, “Nonpeptide substituted spirobenzoazepines as vasopressin antagonists” (Ortho-McNeil Pharmaceutical, Inc., priority 2000, dated 2010).

Assays:
[1] = target: T1, V1a (Homo sapiens, UniProt P37288); assay: In-vitro receptor binding assay (3H-arginine-8-vasopressin), V1a
Outline: (§1)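 Radioligand is 3H-arginine-8-vasopressin, incubated with receptor for one hour at room temperature, then filtered on GF/C plates and counted by scintillation. Non-specific binding was defined with 1.25 μM vasopressin, and results are given as % inhibition.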

[2] = target: T2, V1b (Homo sapiens, UniProt P47901); assay: In-vitro receptor binding assay (3H-arginine-8-vasopressin), V1b
T2 sequence (P47901 1-424): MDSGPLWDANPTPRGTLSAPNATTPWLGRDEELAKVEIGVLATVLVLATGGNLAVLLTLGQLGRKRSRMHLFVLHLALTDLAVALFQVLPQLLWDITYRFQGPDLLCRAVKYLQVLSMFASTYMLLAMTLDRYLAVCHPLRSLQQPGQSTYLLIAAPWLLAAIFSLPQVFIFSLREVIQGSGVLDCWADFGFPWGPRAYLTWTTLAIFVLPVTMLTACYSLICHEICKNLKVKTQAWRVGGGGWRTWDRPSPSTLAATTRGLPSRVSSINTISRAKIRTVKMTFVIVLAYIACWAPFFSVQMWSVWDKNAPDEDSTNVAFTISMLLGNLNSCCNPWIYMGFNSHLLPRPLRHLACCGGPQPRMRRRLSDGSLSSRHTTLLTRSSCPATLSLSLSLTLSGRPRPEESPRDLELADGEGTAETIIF
Description: (A) In-Vitro Binding Assay […] The reaction plates are allowed to sit at room temperature for one hour. The samples are filtered through Unifilter GF/C plates (presoaked in 0.3 polyethyleneimine). The plates are washed 5 times with cold physiological saline containing 0.05% Tween 20. After drying, the bottom of the filter plates are sealed and 0.025 ml of Microscint-20 is added to each filter. The top of the plate is sealed, and the plate is counted. Non-specific binding is determined by the addition of 1.25 μM […]-vasopressin in those wells. % Inh. is calculated as follows: […]

[3] = target: human V2 receptor (Homo sapiens, UniProt P30518); assay: In-vitro receptor binding assay (3H-arginine-8-vasopressin), V2
Outline: as §1

[4] = target: T1, V1a; assay: V1a vasopressin receptor functional activity (inhibition of vasopressin-induced intracellular calcium, FLIPR, V1a-HEK cells); assay type: cell-based; set-up: expressed in transfected cells; conditions: HEK-293 cells transfected with human V1a receptor; vasopressin challenge
Description: [formula] (B) V1a Vasopressin Receptor Functional Activity
The V1a receptor is a G-protein coupled receptor, which upon activation triggers an increase in intracellular calcium mobilization. To evaluate compounds for their functional V1a receptor activity, HEK-293 cells were transfected with the human V1a receptor (V1a-HEK cells). HEK-293 cells were grown in DMEM (Dulbecco's modified Eagle Media) supplemented with 10% FBS and glutamine. HEK-cells were passed biweekly by trypsinization and seeded into 96 well plates at 33,000 cells per well. HEK-293 cells were transfected with human V1a receptor DNA using DMRIE-C reagent from Life Technologies. Stable lines were generated by selecting cells grown in culture media containing geneticin. After growing in Packard Clear-View black 96 well plates for 4-6 days, V1a-HEK cells were loaded with the calcium-sensitive fluorescence dye, FLUO-3 AM. Changes in cell fluorescence were quantitated using FLIPR (Fluorometric Imaging Plate Reader; Molecular Devices, Sunnyvale, Calif.). Test compounds were first added to the cells and the resulting changes in fluorescence measured to detect receptor agonistic activity. Five minutes later the cells were challenged with vasopressin to test compounds for their antagonistic activity. Receptor antagonists inhibit the ability of vasopressin to stimulate increases in intracellular fluorescence. IC50's were calculated.

[5] = @ 10 μM, read-out: Receptor Binding V1b (% Inh. @ concentration in μM)
[6] = @ 0.1 μM, read-out: Receptor Binding V2 (% Inh. @ concentration in μM)

T1 sequence (P37288 whole entry): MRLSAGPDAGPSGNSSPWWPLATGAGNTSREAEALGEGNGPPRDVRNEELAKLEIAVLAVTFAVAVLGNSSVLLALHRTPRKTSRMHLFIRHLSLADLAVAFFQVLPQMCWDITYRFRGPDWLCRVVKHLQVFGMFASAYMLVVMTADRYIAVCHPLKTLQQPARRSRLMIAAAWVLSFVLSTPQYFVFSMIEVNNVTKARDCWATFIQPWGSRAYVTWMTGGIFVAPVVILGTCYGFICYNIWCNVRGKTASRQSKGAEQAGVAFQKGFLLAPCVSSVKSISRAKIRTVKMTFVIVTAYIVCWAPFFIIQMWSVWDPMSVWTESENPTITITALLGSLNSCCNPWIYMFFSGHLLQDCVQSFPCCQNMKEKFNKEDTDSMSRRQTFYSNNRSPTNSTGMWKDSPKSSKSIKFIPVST

Compound | IC50 [1] [µM] | IC50 [3] [µM] | IC50 [4] [µM] | also measured
CN(C)CCNC(=O)C1=CC2(CC1)CCN(C(=O)c1ccc(NC(=O)c3ccccc3-c3ccccc3)cc1)c1ccccc1C2 (single isomer, unassigned) [Compound 21] | 0.181 | 0.44 | 0.008 | inhibition at 10 µM [2, 5]: 7%
O=C(Nc1ccc(C(=O)N2CCC3(C=C(CO)CC3)Cc3ccccc32)cc1)c1ccccc1-c1ccccc1 (centres unmarked) [Compound 1, 4-(2-Phenylbenzoyl-4-aminobenzoyl)-3′-(hydroxymethyl)-4-aza-[6,4]-spiro-[5,6]-benzoundec-2′-ene] | 0.009 | 0.018 | < 0.01 | 
CNCC1=CC2(CC1)CCN(C(=O)c1ccc(NC(=O)c3ccccc3-c3ccccc3)cc1)c1ccccc1C2 (centres unmarked) [Compound 3, 4-(2-Phenylbenzoyl-4-aminobenzoyl)-3′-(methylaminomethyl)-4-aza-[6,4]-spiro-[5,6]-benzoundec-2′-ene] | 0.009 | 0.018 | < 0.01 | 
O=C(O)C1=CC2(CC1)CCN(C(=O)c1ccc(NC(=O)c3ccccc3-c3ccccc3)cc1)c1ccccc1C2 (centres unmarked) [Compound 4, 4-(2-Phenylbenzoyl-4-aminobenzoyl)-3′ (carboxyl)-4-aza-[6,4]-spiro-[5,6]-benzoundec-2′-ene] | 0.037 | 0.014 | 0.02 | 
CC(=O)N(C)CC1=CC2(CC1)CCN(C(=O)c1ccc(NC(=O)c3ccccc3-c3ccccc3)cc1)c1ccccc1C2 (centres unmarked) [Compound 5, 4-(2-Phenylbenzoyl-4-aminobenzoyl)-3′-(N-methyl-N-acetylaminomethyl)-4-aza-[6,4]-spiro-[5,6]-benzoundec-2′-ene] | 0.02 | 0.022 | < 0.01 | 
O=C(NCCO)C1=CC2(CC1)CCN(C(=O)c1ccc(NC(=O)c3ccccc3-c3ccccc3)cc1)c1ccccc1C2 (centres unmarked) [Compound 6] | 0.006 | 0.011 | 0.005 | 
O=C(NCCO)C1=CC2(CC1)CCN(C(=O)c1ccc(NC(=O)c3ccccc3F)cc1)c1ccccc1C2 (centres unmarked) [Compound 8] | 0.004 |  | 0.099 | inhibition at 0.1 µM ([2]; @ 0.1 μM, read-out: Receptor Binding V1b (% Inh. @ concentration in μM)): 41%
CN(C)CCNC(=O)C1=CC2(CC1)CCN(C(=O)c1ccc(NC(=O)c3ccccc3-c3ccccc3)cc1)c1ccccc1C2 (centres unmarked) [Compound 9, 4-(2-Phenylbenzoyl-4-aminobenzoyl)-3′-[2-(N,N-dimethylaminoethylcarbonyl)]-4-aza-[6,4]-spiro-[5,6]-benzoundec-2′-ene] | 0.005 | 0.011 | 0.004 | inhibition at 10 µM [2, 5]: 12%
Cc1ccc(F)cc1C(=O)Nc1ccc(C(=O)N2CCC3(C=C(C(=O)NCCN(C)C)CC3)Cc3ccccc32)cc1 (centres unmarked) [Compound 13] | 0.005 | 0.018 | 0.07 | 
Cc1ccc(F)cc1C(=O)Nc1ccc(C(=O)N2CCC3(C=C(C(=O)NCCCN(C)C)CC3)Cc3ccccc32)cc1 (centres unmarked) [Compound 14] | 0.005 | 0.023 | 0.059 | 
COC(=O)CNCC1=CC2(CC1)CCN(C(=O)c1ccc(NC(=O)c3cc(F)ccc3C)cc1)c1ccccc1C2 (centres unmarked) [Compound 15] | 0.007 | 0.1 | 0.135 | 
CN(C)CCNC(=O)C1=CC2(CC1)CCN(C(=O)c1ccc(NC(=O)c3ccccc3F)cc1)c1ccccc1C2 (centres unmarked) [Compound 16, 4-(2-Fluorobenzoyl-4-aminobenzoyl)-3′-[2-(N,N-dimethylaminoethylcarbonyl)]-4-aza-[6,4]-spiro-[5,6]-benzoundec-2′-ene] | 0.008 |  | 0.126 | inhibition at 10 µM [2, 5]: 8%; inhibition at 0.1 µM [3, 6]: 17%
O=C(NCCN1CCOCC1)C1=CC2(CC1)CCN(C(=O)c1ccc(NC(=O)c3ccccc3F)cc1)c1ccccc1C2 (centres unmarked) [Compound 17] | 0.014 |  | 0.227 | inhibition at 0.1 µM [3, 6]: 18%
O=C(NCCN1CCCCC1)C1=CC2(CC1)CCN(C(=O)c1ccc(NC(=O)c3ccccc3F)cc1)c1ccccc1C2 (centres unmarked) [Compound 18] | 0.007 |  | 0.95 | inhibition at 0.1 µM [3, 6]: 23%
O=C(NCCN1CCCC1)C1=CC2(CC1)CCN(C(=O)c1ccc(NC(=O)c3ccccc3F)cc1)c1ccccc1C2 (centres unmarked) [Compound 19] | 0.008 |  | 0.155 | Receptor Binding V1b (% Inh. @ concentration in μM) ([2]; @ 0.1 μM): 22% @ 0.1
CCNc1ccc(C(=O)N2CCC3(CCCCC3)Cc3ccccc32)cc1 [Compound 26] | 0.16 | 10 | 0.105 | 
O=C(Nc1ccccc1)c1ccc(C(=O)N2CCCC3(C=CCCC3)c3ccccc32)cc1 (centres unmarked) [Compound 27] | 0.1 | 0.27 | 0.008 | 
N#Cc1ccc(C(=O)N2CCC3(C=CCCC3)Cc3ccccc32)cc1 (centres unmarked) [Compound 33] | 0.13 |  | > 1 | 
COc1ccc(C(=O)N2CCC3(C=CCCC3)Cc3ccccc32)cc1 (centres unmarked) [Compound 37] | 0.11 |  | 0.096 | Receptor Binding V2 (% Inh. @ concentration in μM) ([3]; @ 10 μM): 37% @ 10
O=C(c1ccc(Cl)c(Cl)c1)N1CCC2(C=CCCC2)Cc2ccccc21 (centres unmarked) [Compound 48] |  |  | > 1 | inhibition at 10 µM ([1]; @ 10 μM, read-out: Receptor Binding V1a (% Inh. @ concentration in μM)): 33%; inhibition at 10 µM ([3]; @ 10 μM, read-out: Receptor Binding V2 (% Inh. @ concentration in μM)): 16%
CCCCOc1ccc(C(=O)N2CCC3(C=CCCC3)Cc3ccccc32)cc1 (centres unmarked) [Compound 53] | 0.06 | 8 | 0.104 | 
COC(=O)c1ccc(C(=O)N2CCC3(C=CCCC3)Cc3ccccc32)cc1 (centres unmarked) [Compound 54, 4-(4-Carbomethoxybenzoyl)-4-aza-[6,5]-spiro-[5,6]-benzododec-2′-ene] | 0.33 | 10 | 0.067 | 
O=C(Nc1ccc(C(=O)N2CCC3(C=CCCC3)Cc3ccccc32)cc1)c1ccccc1-c1ccccc1 (centres unmarked) [Compound 66, 4-(2-Phenylbenzoyl-4-aminobenzoyl)-4-aza-[6,5]-spiro-[5,6]-benzododec-2′-ene] | 0.83 | 0.19 | 0.025 | 
Cc1ccccc1C(=O)Nc1ccc(C(=O)N2CCC3(C=CCCC3)Cc3ccccc32)cc1 (centres unmarked) [Compound 69] | 0.01 | 0.07 | 0.14 | 
Cc1cc(F)ccc1C(=O)Nc1ccc(C(=O)N2CCC3(C=CCCC3)Cc3ccccc32)cc1 (centres unmarked) [Compound 99] | 0.041 |  | 0.08 | inhibition at 1 µM ([3]; @ 1 μM, read-out: Receptor Binding V2 (% Inh. @ concentration in μM)): 35%
Cc1cc(F)ccc1C(=O)Nc1ccc(C(=O)N2CCC3(C=CCCC3)Cc3ccccc32)cc1 (centres unmarked) [Compound 100] | 0.008 | 0.067 | 0.05 | 
O=C(Nc1ccc(C(=O)N2CCC3(C=CCCC3)Cc3ccccc32)cc1)c1ccccc1F (centres unmarked) [Compound 101, 4-(2-Fluorobenzoyl-4-aminobenzoyl)-4-aza-[6,5]-spiro-[5,6]-benzododec-2′-ene] | 0.01 | 0.55 | 0.06 | 
O=C(Nc1ccc(C(=O)N2CCC3(C=CCCC3)Cc3ccccc32)c(Cl)c1)c1ccccc1F (centres unmarked) [Compound 110] | 0.9 | 1 | 2.57 | 
(R)-4-(2-fluorophenylbenzoyl-4-aminobenzoyl)-3′-(2-(N,N-dimethylaminoethylaminocarbonyl))-4-aza-[6,4]-spiro-[5,6]-benzoundec-2′-ene [Compound 23] |  |  |  | Receptor Binding V1a (% Inh. @ concentration in μM) ([1]; @ 0.1 μM): 15% @ 0.1; IC50 [2]: 13.7 µM; Receptor Binding V2 (% Inh. @ concentration in μM) ([3]; @ 0.1 μM): 1% @ 0.1
(S)-4-(2-fluorophenylbenzoyl-4-aminobenzoyl)-3′-(2-(N,N-dimethylaminoethylaminocarbonyl))-4-aza-[6,4]-spiro-[5,6]-benzoundec-2′-ene [Compound 22] | 0.003 |  |  | Receptor Binding V1b (% Inh. @ concentration in μM) ([2]; @ 10 μM): 17% @ 10; Receptor Binding V2 (% Inh. @ concentration in μM) ([3]; @ 0.1 μM): 15% @ 0.1
